The record followed here is patent publication US11541029B2, “High penetration compositions and their applications” (Techfields Pharma Co., Ltd., priority 2008, dated 2023).

The subject of this experiment is fungal diseases and insects of peach trees. The experiment in a line: Antiviral, anti-fungus, anti-insect activity in peach trees. The experiment is classed as in vivo. The procedure: 240 Peach trees were divided into 4 groups. All field operations concerning land preparation and the uses of fertilizers were same for all groups. Group A (n=60) was control group with no chemical treatments. Group B (n=60) was normal fungicides and insecticides-treated group. Group C (n=60) was treated with N,N-diethylaminoethyl acetylsalicylate plus some insecticides. Group D (n=60) was N,N-diethylaminoethyl acetylsalicylate and N,N-diethylaminoethyl jasmonate.citric acid treated group. In group A, Peach Leaf Curl, Peach Scab, Brown Rot, Black Knot and other fungal diseases were found and different scale insects, Shothole Borer, Peach tree Borer, Lesser Peachtree Borer, fruit Moth and other diseases and insects were found. No any good (edible) fruits were harvested. In group B, 100 g of ferbam [iron tris(dimethyldithiocarbamate)] […] Group C was N,N-diethylaminoethyl acetylsalicylate-treated group. 50 g of N,N-diethylaminoethyl acetylsalicylate in 50 kg of water was applied to the group C Peach trees on November 15, March 1, March 20, and June 20, 50 g of N,N-diethylaminoethyl acetylsalicylate, 125 g of Malathion 50% EC, 125 g of 1-naphthyl methylcarbamate 50% WP and 60 g of thiophanate-methyl 50% WP in 50 kg of water was applied to the group C peach trees on April 1, April 20, May 10, and May 30. Yield 3000 kg of good (edible) peaches. […]

Molecules are shown by their SMILES.

In the case of `CCN(CC)CCOC(=O)c1ccccc1OC(C)=O.Cl` [P-1, diethylaminoethyl acetylsalicylate.HCl salt], the “Yield of good (edible) peaches” value (60 trees per group, some insecticides/fungicides co-applied) stood at 3000 kg. The compound also showed a harvest dates earlier (groups C and D) of 1 week.
